Results on 17 compounds are retold here after ChEMBL document CHEMBL4000231, “Natural potential neuroinflammatory inhibitors from Alhagi sparsifolia Shap” (Bioorg Med Chem Lett, 2017).

Data set [1] has as its system N9. As to the kind of experiment: Antineuroinflammatory activity in mouse N9 cells assessed as inhibition of LPS-induced nitric oxide production after 24 hrs by Griess assay. It is filed as functional, cell-based. For orientation: The Griess reaction detects nitrite, a stable product of nitric oxide.
Data set [2] deals with N9. The experiment in a line: Cytotoxicity against LPS-induced mouse N9 cells assessed as decrease in cell viability at 1 to 100 ug/ml after 24 hrs by MTT assay. The data set is classed as cell-based. Particulars: n9, 24 h. For orientation: Tetrazolium dyes change colour on reduction, which living cells bring about.

As for `COc1ccc(CO)cc1O`, in the data set on N9 [1], the inhibition entry was “Dose-dependent effect”. The Activity entry in the data set on N9 [2] is recorded as “Non-Toxic”.

On to `COc1cc(OC)cc([C@@H]2OC[C@H]3[C@@H]2CO[C@H]3c2ccc(O)c(OC)c2)c1`, for which the inhibition entry in the data set with N9 [1] was “Dose-dependent effect”. Also, in the data set on N9 [2], the Activity entry was “Non-Toxic”.

Consider `CC1=CC(C)(C)[C@@H](C)C1`, for which, in the data set with N9 [1], the inhibition entry is “Dose-dependent effect”. In the data set with N9 [2], the Activity result was “Non-Toxic”.

As for `C=Cc1ccc(O)cc1OC`, the inhibition entry with N9 [1] was “Dose-dependent effect”. In addition, in the data set on N9 [2], the Activity entry is reported as “Non-Toxic”.

As for `C[C@@H]1O[C@@H](OC[C@H]2O[C@@H](Oc3c(-c4ccc(O)c(O)c4)oc4cc(O)cc(O)c4c3=O)[C@H](O[C@@H]3O[C@@H](C)[C@H](O)[C@@H](O)[C@H]3O)[C@@H](O)[C@@H]2O)[C@H](O)[C@H](O)[C@H]1O`, the inhibition result in the data set with N9 [1] was “Dose-dependent effect”. The Activity result in the data set on N9 [2] is listed as “Non-Toxic”.

For the compound `COc1ccc(-c2coc3c(OC)c(O)ccc3c2=O)cc1O`, the inhibition entry in the data set on N9 [1] is “Dose-dependent effect”. For the same compound, in the data set with N9 [2], the Activity result is “Non-Toxic”.

As for `O=C(N[C@@H](Cc1ccccc1)C(=O)N[C@H](CO)Cc1ccccc1)c1ccccc1`, in the data set on N9 [1], the inhibition result is “Dose-dependent effect”. Moreover, in the data set on N9 [2], the Activity result was “Non-Toxic”.

On to `CC1=CC(=O)CC(C)(C)[C@@]1(O)/C=C/C(C)=C\C(=O)O` [(+)-ABSCISIC ACID], for which, in the data set on N9 [1], the inhibition result is “Dose-dependent effect”. In the data set on N9 [2], the Activity entry is “Non-Toxic”.

Regarding `COc1cc([C@@H]2OC[C@@H]3[C@H]2CO[C@H]3c2ccc(O)c(OC)c2)ccc1O` [(+)-PINORESINOL], in the data set with N9 [1], the inhibition entry is “Dose-dependent effect”. In the data set on N9 [2], the Activity result is given as “Non-Toxic”.

For the compound `COc1cc([C@@H]2OC[C@@H]3[C@H]2CO[C@H]3c2cc(OC)c(O[C@@H]3O[C@H](CO)[C@@H](O)[C@H](O)[C@H]3O)c(OC)c2)cc(OC)c1O` [ACANTHOSIDE B], the inhibition result in the data set with N9 [1] is “Dose-dependent effect”. Also, in the data set on N9 [2], the Activity entry is recorded as “Non-Toxic”.

On to `CC1=CC(=O)CC(C)(C)[C@@]1(O)/C=C/[C@@H](C)O` [BLUMENOL A], for which the inhibition result in the data set with N9 [1] is “Dose-dependent effect”. The Activity result in the data set with N9 [2] is on record as “Non-Toxic”.

On to `COc1ccc(-c2coc3cc(O)ccc3c2=O)cc1O` [CALYCOSIN], for which the inhibition entry with N9 [1] was “Dose-dependent effect”. The Activity entry with N9 [2] was “Non-Toxic”.

Regarding `O=c1c(O[C@@H]2O[C@H](CO)[C@@H](O)[C@H](O)[C@H]2O)c(-c2ccc(O)c(O)c2)oc2cc(O)cc(O)c12` [ISOQUERCETIN], the inhibition entry in the data set on N9 [1] was “Dose-dependent effect”. Further, in the data set on N9 [2], the Activity entry is on record as “Non-Toxic”.

For the compound `COc1cc(-c2oc3cc(O)cc(O)c3c(=O)c2O)ccc1O` [ISORHAMNETIN], the inhibition result with N9 [1] is “Dose-dependent effect”. In addition, in the data set with N9 [2], the Activity entry is reported as “Non-Toxic”.

On to `COc1ccc(-c2coc3cc(O)c(OC)cc3c2=O)cc1O` [ODORATIN], for which the inhibition result in the data set on N9 [1] was “Dose-dependent effect”. Also, the Activity result in the data set with N9 [2] is “Non-Toxic”.

`O=c1c(O)c(-c2ccc(O)c(O)c2)oc2cc(O)cc(O)c12` [QUERCETIN]: the inhibition entry in the data set with N9 [1] was “Dose-dependent effect”. The Activity entry in the data set on N9 [2] is on record as “Non-Toxic”.

`COc1cc([C@H]2OC[C@H]3[C@@H]2CO[C@@H]3c2cc(OC)c(O)c(OC)c2)cc(OC)c1O` [SYRINGARESINOL]: the inhibition entry in the data set with N9 [1] is “Dose-dependent effect”. In the data set on N9 [2], the Activity entry was “Non-Toxic”.
